The subject of series [1] is Herpes-Simplex-Viren. Kind of series: Inhibition of herpes simplex virus replication in tissue cultures of chick embryo fibroblasts. Format: cell-based. As to conditions: Gewebekulturen von Hühnerembryofibroblasten; Konzentration 10 µg/ml. The protocol:
Dem «-XDU-Monophosphat kommt eine ungewöhnliche Eigenschaft zu, die vom Fachmann nicht vorhersehbar war. Es ist nämlich in der Lage, die Vermehrung von Herpes-Simplex-Viren zu hemmen. In Gewebekulturen von HUhnerembryofibroblasten hemmt α-ÄDU-MP in einer Konzentration von 10 µg/ml deutlich die Virusvermehrung. Unter gleicher Bedingung ist α-ÄDU selbst ohne Wirkung.

Series [2] deals with resistente Herpesviren. Kind of series: Local treatment of herpes keratitis produced with resistant strains. Format: in vivo. As to conditions: Kaninchen, lokal, bis zu 7 mal täglich, bis zu 11 Tage; JDU-MP 0,1 bis 1 %, ÄDU-MP 0,1 bis 8 %, TFT-MP 0,1 bis 2 %, ARA-A-MP 0,2 bis 2 %, Acycloguanosin-Monophosphat 0,5 bis 5 %. The procedure:
Man züchtet Herpes-Viren in Gewebekulturen von menschlichen Fibroblastzellen über 1 bis 5 Passagen in Gegenwart von Nukleosiden, wie beispielsweise ÄDU (Äthyldesoxyuridin), Konzentration: 20 µg/ml, TFT (Trifluorthymidin) Konzentration 5 bis 10 µg/ml, ARA-A-MP (Arabinofuranosyladenin-Monophosphat),Konzentration 20 µg/ml, Acycloguanosin (ACG), Konzentration 5 bis 30 µg/ml, wobei der Saatvirus auf die Cornea der Tiere (Hamster, Kaninchen) durch Aufträufeln übertragen wird. Zwei Stunden nach der Übertragung erfolgt die Behandlung der Cornea lokal mit den entsprechenden Nukleosiden in den oben angegebenen Konzentrationen. Dabei zeigt sich, daß die Viren für die Nukleoside resistent werden. Die Bewertung der Infektion erfolgt durch Anfärben der Hornhaut mit Fluorescin-Na-Lösung (1 %) und anschließende Farbphotodokumentation.
Die Behandlung der Herpes-Keratitis bei Kaninchen, erzeugt mit den resistenten Stämmen, erfolgt lokal mit folgenden Wirkstoffen: JDU-MP (Joddesoxyuridin-Monophosphat), Konzentration 0,1 bis 1 %, ÄDU-MP (Äthyldesoxyuridin-Monophosphat), Konzentration: 0,1 bis 8 %, TFT-MP (Trifluor- thymidin-Monophosphat), Konzentration: 0,1 bis 2 %, ARA-A-MP (Arabinofuranosyladenin-Monophosphat), Konzentration: 0,2 bis 2 %, Acycloguanosin-Monophosphat, Konzentration: 0,5 bis 5 %, bis zu 7 mal täglich für die Dauer von bis zu 11 Tagen.

Series [3] concerns DNS. Kind of series: Incorporation into DNA (stated property, no method described). As to conditions: acts virostatically; no test described.

The record followed here is EP0015584A2, “Nucleotides, methods for their preparation and medicaments” (Gauri, Kailash Kumar, Dr. Prof., priority 1979, dated 1980).

`CCc1cn([C@@H]2C[C@H](O)[C@@H](CO)O2)c(=O)[nH]c1=O` [α-ÄDU, α-5-Äthyl-2'-deoxyuridin, reference compound]: in series [1], the “Hemmung der Virusvermehrung” value is reported as “ohne Wirkung”.

As to `O=c1[nH]c(=O)n([C@H]2C[C@H](O)[C@@H](COP(=O)(O)O)O2)cc1C(F)(F)F` [TFT-MP, Trifluor- thymidin-Monophosphat], in series [2], the “Bekämpfung der durch resistente Herpesviren verursachten Infektion (Herpes-Keratitis)” value is “wirksam bekämpfen”.

For `CCc1cn([C@@H]2C[C@H](O)[C@@H](COP(=O)(O)O)O2)c(=O)[nH]c1=O` [α-ÄDU-MP, α-5-Äthyl-2'-deoxyuridin-5'-monophosphat], in series [1], the “Hemmung der Virusvermehrung” value is on record as “deutlich”. Besides, the “Einbau in die DNS” value in series [3] was “ohne in die DNS eingebaut zu werden”.

On to `CCc1cn([C@H]2C[C@H](O)[C@@H](COP(=O)(O)O)O2)c(=O)[nH]c1=O` [ÄDU-MP, Äthyldesoxyuridin-Monophosphat], for which, in series [2], the “Bekämpfung der durch resistente Herpesviren verursachten Infektion (Herpes-Keratitis)” value was “wirksam bekämpfen”.

Consider `O=c1[nH]c(=O)n([C@H]2C[C@H](O)[C@@H](COP(=O)(O)O)O2)cc1I` [JDU-MP, Joddesoxyuridin-Monophosphat], for which the “Bekämpfung der durch resistente Herpesviren verursachten Infektion (Herpes-Keratitis)” value in series [2] is on record as “wirksam bekämpfen”.

As for `Nc1nc2c(ncn2COCCOP(=O)(O)O)c(=O)[nH]1` [Acycloguanosin-Monophosphat], the “Bekämpfung der durch resistente Herpesviren verursachten Infektion (Herpes-Keratitis)” value in series [2] was “wirksam bekämpfen”.
